Test results: patent US4517181A, “Mammalian PGRF” (The Salk Institute for Biological Studies, priority 1982, dated 1985)

System: cells of rat pituitary glands
Assay: in vitro GH release, rat pituitary cell monolayer culture bioassay (ir GH by radioimmunoassay)
Type: cell-based
Conditions: for biological potency (additional testing): compared with PGRF (1-40)
Procedure: To determine the effectiveness of the peptides to promote the release of growth hormone, in vitro assays are carried out using synthetic PGRF (1-40) of Example II in side-by-side comparison with equimolar concentrations of the extracted and purified native PGRF (1-40) and of a GRF Reference Standard having a known effectiveness to promote the release of growth hormone from pituitary cells. The GRF Reference standard is described and defined in Brazeau, et al., Endocrinology, Vol. 110, A538(1982) and is an amount of a preparation of rat hypothalamic origin that produces a half-maximal response in terms of GH release in a pituitary cell monolayer bioassay. Cultures are used which include cells of rat pituitary glands removed some four to five days previously. Both cultures of a defined standard medium and cultures which are considered optimal for the secretion of growth hormone are used for the comparative testing, in the general manner described in Brazeau, et al. Regulatory Peptides, 1, 255, 1981. Incubation with the substance to be tested is carried out for 3 to 4 hours, and aliquots of the culture medium are removed and processed to measure their contents in inmunoreactive GH(ir GH) by a well-characterized radioimmunoassay.
The in vitro assays described in Example VII are repeated using Native PGRF(1-40) and Native PGRF(1-44) and the results are set forth in following Table III: […]

Structure (SMILES): CC[C@H](C)[C@H](NC(=O)[C@H](C)NC(=O)[C@H](CC(=O)O)NC(=O)[C@H](C)NC(=O)[C@@H](N)Cc1ccc(O)cc1)C(=O)N[C@@H](Cc1ccccc1)C(=O)N[C@H](C(=O)N[C@@H](CC(N)=O)C(=O)N[C@@H](CO)C(=O)N[C@@H](Cc1ccc(O)cc1)C(=O)N[C@@H](CCCNC(=N)N)C(=O)N[C@@H](CCCCN)C(=O)N[C@H](C(=O)N[C@@H](CC(C)C)C(=O)NCC(=O)N[C@@H](CCC(N)=O)C(=O)N[C@@H](CC(C)C)C(=O)N[C@@H](CO)C(=O)N[C@@H](C)C(=O)N[C@@H](CCCNC(=N)N)C(=O)N[C@@H](CCCCN)C(=O)N[C@@H](CC(C)C)C(=O)N[C@@H](CC(C)C)C(=O)N[C@@H](CCC(N)=O)C(=O)N[C@@H](CC(=O)O)C(=O)N[C@H](C(=O)N[C@@H](CCSC)C(=O)N[C@@H](CO)C(=O)N[C@@H](CCCNC(=N)N)C(=O)N[C@@H](CCC(N)=O)C(=O)N[C@@H](CCC(N)=O)C(=O)NCC(=O)N[C@@H](CCC(=O)O)C(=O)N[C@@H](CO)C(=O)N[C@@H](CC(N)=O)C(=O)N[C@@H](CCC(N)=O)C(=O)N[C@@H](CCC(=O)O)C(=O)O)[C@@H](C)CC)C(C)C)[C@@H](C)O [Example VI, PGRF (1-37)-free acid]
- biological potency (additional testing): very substantial biological potency

Structure (SMILES): CC[C@H](C)[C@H](NC(=O)[C@H](C)NC(=O)[C@H](CC(=O)O)NC(=O)[C@H](C)NC(=O)[C@@H](N)Cc1ccc(O)cc1)C(=O)N[C@@H](Cc1ccccc1)C(=O)N[C@H](C(=O)N[C@@H](CC(N)=O)C(=O)N[C@@H](CO)C(=O)N[C@@H](Cc1ccc(O)cc1)C(=O)N[C@@H](CCCNC(=N)N)C(=O)N[C@@H](CCCCN)C(=O)N[C@H](C(=O)N[C@@H](CC(C)C)C(=O)NCC(=O)N[C@@H](CCC(N)=O)C(=O)N[C@@H](CC(C)C)C(=O)N[C@@H](CO)C(=O)N[C@@H](C)C(=O)N[C@@H](CCCNC(=N)N)C(=O)N[C@@H](CCCCN)C(=O)N[C@@H](CC(C)C)C(=O)N[C@@H](CC(C)C)C(=O)N[C@@H](CCC(N)=O)C(=O)N[C@@H](CC(=O)O)C(=O)N[C@H](C(=O)N[C@@H](CCSC)C(=O)N[C@@H](CO)C(=O)N[C@@H](CCCNC(=N)N)C(=O)N[C@@H](CCC(N)=O)C(=O)N[C@@H](CCC(N)=O)C(=O)NCC(=O)N[C@@H](CCC(=O)O)C(=O)N[C@@H](CO)C(=O)N[C@@H](CC(N)=O)C(=O)N[C@@H](CCC(N)=O)C(=O)N[C@@H](CCC(=O)O)C(=O)N[C@@H](CCCNC(=N)N)C(=O)NCC(=O)N[C@@H](C)C(=O)O)[C@@H](C)CC)C(C)C)[C@@H](C)O [Native PGRF (1-40)]
- GH secretion in vitro % of controls (Table I, 12.5 femtomoles): 234 ± 17 % of controls
- GH secretion in vitro % of controls (Table I, 25 fmoles): 351 ± 7 % of controls
- GH secretion in vitro % of controls (Table I, 50 fmoles): 528 ± 16 % of controls
- GH secretion in vitro % of controls (Table I, 100 fmoles): 720 ± 32 % of controls
- GH secretion in vitro % of controls (Table I, 200 fmoles): 748 ± 7 % of controls
- GH secretion in vitro % of controls (Table III, 6.3 femtomoles): 198 ± 5.9 % of controls
- GH secretion in vitro % of controls (Table III, 12.5 femtomoles): 270 ± 2.4 % of controls
- GH secretion in vitro % of controls (Table III, 25.0 femtomoles): 348 ± 3.4 % of controls
- GH secretion in vitro % of controls (Table III, 50.0 femtomoles): 466 ± 0.9 % of controls
- GH secretion in vitro % of controls (Table III, 100.0 femtomoles): 570 ± 17 % of controls
- GH secretion in vitro % of controls (Table III, 200.0 femtomoles): 579 ± 2.1 % of controls
- GH secretion in vitro % of controls (Table III, 400.0 femtomoles): 588 ± 10 % of controls
- GH-releasing activity (peptides isolated from human islet cell tumor): exhibit GH-releasing activity

Structure (SMILES): CC[C@H](C)[C@H](NC(=O)[C@H](C)NC(=O)[C@H](CC(=O)O)NC(=O)[C@H](C)NC(=O)[C@@H](N)Cc1ccc(O)cc1)C(=O)N[C@@H](Cc1ccccc1)C(=O)N[C@H](C(=O)N[C@@H](CC(N)=O)C(=O)N[C@@H](CO)C(=O)N[C@@H](Cc1ccc(O)cc1)C(=O)N[C@@H](CCCNC(=N)N)C(=O)N[C@@H](CCCCN)C(=O)N[C@H](C(=O)N[C@@H](CC(C)C)C(=O)NCC(=O)N[C@@H](CCC(N)=O)C(=O)N[C@@H](CC(C)C)C(=O)N[C@@H](CO)C(=O)N[C@@H](C)C(=O)N[C@@H](CCCNC(=N)N)C(=O)N[C@@H](CCCCN)C(=O)N[C@@H](CC(C)C)C(=O)N[C@@H](CC(C)C)C(=O)N[C@@H](CCC(N)=O)C(=O)N[C@@H](CC(=O)O)C(=O)N[C@H](C(=O)N[C@@H](CCSC)C(=O)N[C@@H](CO)C(=O)N[C@@H](CCCNC(=N)N)C(=O)N[C@@H](CCC(N)=O)C(=O)N[C@@H](CCC(N)=O)C(=O)NCC(=O)N[C@@H](CCC(=O)O)C(=O)N[C@@H](CO)C(=O)N[C@@H](CC(N)=O)C(=O)N[C@@H](CCC(N)=O)C(=O)N[C@@H](CCC(=O)O)C(=O)N[C@@H](CCCNC(=N)N)C(=O)NCC(=O)N[C@@H](C)C(=O)N[C@@H](CCCNC(=N)N)C(=O)N[C@@H](C)C(=O)N[C@@H](CCCNC(=N)N)C(=O)N[C@@H](CC(C)C)C(=O)O)[C@@H](C)CC)C(C)C)[C@@H](C)O [synthetic PGRF(1-44)-free acid, PGRF(1-44) free acid]
- potency compared with native PGRF(1-44) (further testing): somewhat less potency than native PGRF(1-44)

Structure (SMILES): CC[C@H](C)[C@H](NC(=O)[C@H](C)NC(=O)[C@H](CC(=O)O)NC(=O)[C@H](C)NC(=O)[C@@H](N)Cc1ccc(O)cc1)C(=O)N[C@@H](Cc1ccccc1)C(=O)N[C@H](C(=O)N[C@@H](CC(N)=O)C(=O)N[C@@H](CO)C(=O)N[C@@H](Cc1ccc(O)cc1)C(=O)N[C@@H](CCCNC(=N)N)C(=O)N[C@@H](CCCCN)C(=O)N[C@H](C(=O)N[C@@H](CC(C)C)C(=O)NCC(=O)N[C@@H](CCC(N)=O)C(=O)N[C@@H](CC(C)C)C(=O)N[C@@H](CO)C(=O)N[C@@H](C)C(=O)N[C@@H](CCCNC(=N)N)C(=O)N[C@@H](CCCCN)C(=O)N[C@@H](CC(C)C)C(=O)N[C@@H](CC(C)C)C(=O)N[C@@H](CCC(N)=O)C(=O)N[C@@H](CC(=O)O)C(=O)N[C@H](C(=O)N[C@@H](CCSC)C(=O)N[C@@H](CO)C(=O)N[C@@H](CCCNC(=N)N)C(=O)N[C@@H](CCC(N)=O)C(=O)N[C@@H](CCC(N)=O)C(=O)NCC(=O)N[C@@H](CCC(=O)O)C(=O)N[C@@H](C)C(=O)N[C@@H](CC(N)=O)C(=O)N[C@@H](CCC(N)=O)C(=O)N[C@@H](CCC(=O)O)C(=O)N[C@@H](CO)C(=O)NCC(=O)N[C@@H](CCCNC(=N)N)C(=O)O)[C@@H](C)CC)C(C)C)[C@@H](C)O [Example IV]
- biological potency (additional testing): substantially the same biological potency as the native PGRF (1-40)

Structure (SMILES): CC[C@H](C)[C@H](NC(=O)[C@H](C)NC(=O)[C@H](CC(=O)O)NC(=O)[C@H](C)NC(=O)[C@@H](N)Cc1ccc(O)cc1)C(=O)N[C@@H](Cc1ccccc1)C(=O)N[C@H](C(=O)N[C@@H](CC(N)=O)C(=O)N[C@@H](CO)C(=O)N[C@@H](Cc1ccc(O)cc1)C(=O)N[C@@H](CCCNC(=N)N)C(=O)N[C@@H](CCCCN)C(=O)N[C@H](C(=O)N[C@@H](CC(C)C)C(=O)NCC(=O)N[C@@H](CCC(N)=O)C(=O)N[C@@H](CC(C)C)C(=O)N[C@@H](CO)C(=O)N[C@@H](C)C(=O)N[C@@H](CCCNC(=N)N)C(=O)N[C@@H](CCCCN)C(=O)N[C@@H](CC(C)C)C(=O)N[C@@H](CC(C)C)C(=O)N[C@@H](CCC(N)=O)C(=O)N[C@@H](CC(=O)O)C(=O)N[C@H](C(=O)N[C@@H](CCSC)C(=O)N[C@@H](CO)C(=O)N[C@@H](CCCNC(=N)N)C(=O)N[C@@H](CCC(N)=O)C(=O)N[C@@H](CCC(N)=O)C(=O)NCC(=O)N[C@@H](CCC(=O)O)C(=O)N[C@@H](CO)C(=O)N[C@@H](CC(N)=O)C(=O)N[C@@H](CCC(N)=O)C(=O)N[C@@H](CCC(=O)O)C(=O)N[C@@H](CCCNC(=N)N)C(=O)NCC(=O)N[C@@H](C)C(N)=O)[C@@H](C)CC)C(C)C)[C@@H](C)O [Example V, PGRF (1-40)-amide]
- biological potency (additional testing): substantially twice the biological potency of the synthetic peptide tested in Example VII
